The source of these data is PubChem BioAssay AID2305 (GlaxoSmithKline (GSK), 2010).

The experiment concerns P. falciparum 3D7 growth, pLDH absorbance. The experiment is described as follows: P. falciparum 3D7 growth inhibition, dose response, strain 3D7 (AID 2305).

On to `Cc1cccc2[nH]c(-c3cccc(-c4cccc(C(=O)NCCN5CCCC5)c4)c3)nc12`, for which the IC50 (in general, the concentration at which inhibition is half-maximal) worked out at 0.83 µM. With `CC(C)C[C@H]1C(=O)N[C@H](C2Cc3ccccc3C2)C(=O)N1[C@@H](C(=O)Nc1ccccc1OCc1ccccc1)c1ccc(F)cc1F` the figure was 1.02 µM; with `COc1ccc(C2CC(=O)C3=C(C2)NC(C)=C(C(=O)OC(C)C)C3c2ccc(O)cc2)cc1OC` (stereo unspecified), 0.28 µM. `COc1cc(C(=O)N2CCN(C(C)C)CC2)ccc1CN(C)CCCCN1CCN(c2cccc(Cl)c2Cl)CC1` gave an IC50 of 0.7 µM. The value for `Cc1cc2nc(-c3ccc(C(=O)NCc4cccc(F)c4)cc3)[nH]c2cc1C` was 0.96 µM; that for `CCN(CCCN1CCCCC1)c1nccc(Nc2ccc(Cl)cc2)n1` was 1.19 µM.

Molecule `CCCc1cn2c3c(cc(C(=O)N[C@@H](Cc4ccccc4)[C@H](O)CNC4CCCCC4)cc13)N(CC)S(=O)(=O)CC2` yielded an IC50 of 0.08 µM.

Molecule `CC(C)CC(NC(=O)c1ccc(F)cc1)C(=O)N[C@H](/C=N/N1CCNC1=O)CC(C)C` (stereo partly specified) had an IC50 of 1.03 µM. Compared with the last molecule, the IC50 is about 13-fold higher. `COC(=O)C1=CNC=C(C(=O)OC)C1c1ccc(Cl)c([N+](=O)[O-])c1` returned an IC50 of 0.68 µM. With `O=C(CCC(=O)c1ccc2c3c(cccc13)CC2)NC1CCC(CN2CCC(c3c[nH]c4ccccc34)CC2)CC1` (stereo unspecified) the figure was 0.92 µM; with `Cc1cc(NC(=O)c2ccc(-c3ccccc3)cc2)no1`, 1.02 µM.

In turn, `COc1ccc(C(=O)N2CCC3(CC2)C(=O)N(CC(=O)NCC2CCCCC2)CN3c2ccccc2)c(OC)c1` returned an IC50 of 0.12 µM.

Regarding `O=C(NCCc1cccc(F)c1)c1ccc(N2CCN(c3ccncc3)CC2)cn1`, the IC50 came to 1.02 µM. With `O=C(CNC(=O)c1ccc(O)cc1)Nc1ccc(-c2cccc(-c3nc4ccc(C(F)(F)F)cc4[nH]3)c2)cc1` the figure was 0.86 µM; with `Cc1nc2nc(N)nc(N)c2c(C)c1Cc1ccccc1Cl`, 0.11 µM; with `CN1CCCN(Cc2ccc(-c3ccc(NC(=O)c4ccc(Cl)cc4)cc3)cc2)CC1`, 0.9 µM. With `CCC(C)NC(=O)Cn1c2ncccc2c(=O)n1-c1ccc(C)cc1` (stereo unspecified) the figure was 1.26 µM. With `Clc1ccc2c(N3CCN(CCN4CCN(c5ccnc6cc(Cl)ccc56)CC4)CC3)ccnc2c1` the figure was 0.13 µM; with `Oc1ccc2c(c1NCC1CCCCC1)CCCC2`, 0.51 µM; with `CC(C)N(Cc1cnc(N)c(C#N)n1)c1ccc(Cl)c(Cl)c1`, 0.84 µM. `Nc1ncc(-c2ccc3nccc(-c4ccncc4)c3c2)cc1S(=O)(=O)N1CCOCC1` showed an IC50 of 0.87 µM. This IC50 and that of the molecule before are within 1.5-fold of each other. As for `N#Cc1ccc(CN2CCCN(Cc3cccc(NC(=O)c4cc5ccccc5s4)c3)CC2)cc1`, the IC50 was 0.91 µM. With `O=C(COc1ccc(F)cc1)NC1CCN(c2ccnc3cc(Cl)ccc23)C1` (stereo unspecified) the figure was 0.27 µM; with `CN1CCCN(c2ccnc3cc4c(cc23)N(C(=O)c2ccc(C(F)(F)F)cc2)CC4)CC1`, 0.79 µM; with `Cc1ccc(C(=O)N2CCc3cc4nccc(N5CCN6CCC[C@H]6C5)c4cc32)cc1`, 1.1 µM. The molecule `O=C(NCC1CCN(Cc2cccc(C(F)(F)F)c2)C1)c1cc(-c2cccc(F)c2)cs1` (stereo unspecified) yielded an IC50 of 1.18 µM. The IC50 values of the last two molecules are within 1.5-fold of each other. With `CC12CN3CC(C)(CN(C1)C3c1cc(Br)ccc1O)C2O` (stereo unspecified) the figure was 0.23 µM; with `CC(C)C[C@@H](NC(=O)OC(C)(C)C)C(=O)Nc1ccc(Cc2ccc(NC(=O)[C@@H](CC(C)C)NC(=O)OC(C)(C)C)cc2)cc1`, 0.21 µM; with `Cc1cc(OCCCN2CCCCC2C)ccc1NC(=O)COc1ccc(Cl)cc1C(=O)c1cc(Cl)cc(C#N)c1` (stereo unspecified), 0.98 µM. The value for `Clc1ccc(CNc2nc(NCCc3cnc[nH]3)nc(Nc3ccc4c(c3)OCO4)n2)cc1` was 0.95 µM; that for `CCCCCCCSc1ccc(CC(C)NCC(O)c2cccc(Cl)c2)cc1` (stereo unspecified) was 0.18 µM; that for `CC(=O)Nc1ccc(Nc2cc(C)nc(Nc3ccc(NC(C)=O)cc3)n2)cc1` was 0.89 µM. With `O=C(/C=C/c1ccc(Cl)c(Cl)c1)NCCCCCN1CCCN(C(=S)Nc2ccc(Cl)cc2)CC1` the figure was 1.13 µM. For `COC(=O)c1cccc(CN(CCC(O)(C(F)(F)F)C(F)(F)F)C(=O)CC2CCCC2)c1`, the IC50 is 0.91 µM. In the case of `CCCC1CCNC(C(O)c2ccnc3ccc(OC)cc23)C1` (stereo unspecified), the IC50 stood at 0.43 µM. This IC50 is about 2.1-fold lower than that of the molecule before. `COc1ccc(CCNC(C)Cc2ccc(C(=O)Nc3ccc(CC(C)NCCc4cccc(Cl)c4)cc3)cc2)cc1` (stereo unspecified) registered an IC50 of 0.25 µM. The value for `COc1ccc2nccc([C@@H](O)CN3CCC(NC(=O)c4ccc5nc(-n6cccc6)sc5c4)CC3)c2c1` was 1 µM; that for `COc1ccc(NS(=O)(=O)c2cccc(C(=O)Nc3ccc(C(F)(F)F)cc3)c2)cc1N1CCN(CC(C)C)CC1` was 0.84 µM. In the case of `COc1ccc(-c2cccc(NC(=O)c3cccc(Cl)c3)c2)cc1CN1CCN(C)CC1`, the IC50 worked out at 0.76 µM. The value for `CNC(=O)c1cc(S(=O)(=O)N2CCN(c3ccccn3)CC2)c(C)s1` was 1.16 µM; that for `COc1ccc(-c2ccc(CNCc3ccsc3)cc2)cc1S(=O)(=O)NCCN1CCCC1` was 0.79 µM; that for `COCCN(CCOC)c1ncc(-c2ccsc2)c(-c2nc(C)c(C)s2)n1` was 0.84 µM. Turning to `CCOCc1cnc(C)nc1NCC(=O)c1c(C)[nH]c2cc(C)ccc12`, the IC50 turned out to be 1.21 µM. The value for `Cc1cc(Nc2ccc(C)c(Cl)c2)n2nc(C(F)(F)F)nc2n1` was 0.02 µM; that for `Cc1[nH]c(C)c(-c2ccc(Oc3cc(Cl)cc(Cl)c3)cc2)c(=O)c1Cl` was 0.52 µM; that for `Cc1cccc2[nH]c(-c3ccc(-c4cccc(C(=O)NCCc5cn(C)cn5)c4)s3)nc12` was 0.88 µM.

`C[C@H]1CN(Cc2cccc(-c3cc(CNC(=O)c4cccc(CC5CCN(C)CC5)c4)ccc3F)c2)CCN1C` returned an IC50 of 1.09 µM. The value for `CN(c1ccc2c(c1)nc(NC(=O)C1(c3cc(F)ccc3F)CC1)n2C)c1ccnc(Nc2cccc(CS(C)(=O)=O)c2)n1` was 1.1 µM; that for `Cc1cc2nc(-c3ccc(/C=C/C(=O)NCCc4ccccc4)cc3)[nH]c2cc1C` was 0.78 µM; that for `FC(F)(F)c1ccc2nc(-c3ccc(-c4cccc(CNCc5cnn(-c6ccccc6)n5)c4)s3)[nH]c2c1` was 0.33 µM. For the molecule `COc1cc2nc(N(C)CC3COc4ccccc4O3)nc(N)c2cc1OC` (stereo unspecified), the IC50 was 1.55 µM. In the case of `O=C(Cc1cc(=O)oc2cc(O)ccc12)NC1CCC(CN2CCC(c3c[nH]c4ccccc34)CC2)CC1` (stereo unspecified), the IC50 is 1.13 µM. With `CNCc1cccc2[nH]c(-c3csc(Cc4cc(Cl)ccc4OCC(C)C)n3)nc12`, the IC50 came out at 0.72 µM. `O=c1cc(NCCCNCc2cccc(C(F)(F)F)c2Cl)[nH]c2ccccc12` returned an IC50 of 0.8 µM. As to `COc1ccc2nccc(NC(=O)N3CCC(NCc4cc5ccccc5[nH]4)CC3)c2n1`, the IC50 was 0.56 µM. Molecule `CSc1nc2cc3c(cc2n1C(=O)c1ccc(C)cc1)OCCO3` gave an IC50 of 0.17 µM. `O=C(Cc1cnc[nH]1)Nc1cccc(-c2ccc(-c3nc4ccc(F)cc4[nH]3)cc2)c1` displayed a half-inhibitory concentration (IC50) of 0.81 µM. Compared with the last molecule, the IC50 is about 4.8-fold higher. `COc1ccccc1CN1CCC(CNC(=O)c2cc(-c3ccc(N(C)C)cc3)cs2)C1` (stereo unspecified): the IC50 is 1.27 µM.

With `Oc1ccc2[nH]c(-c3cccc(F)c3)nc2c1CN1CCC(O)(c2ccccc2)CC1`, the IC50 came out at 0.99 µM.

Molecule `O=C(Nc1ccc(Cl)c(-c2nc3ccccc3[nH]2)c1)c1ccc(-c2ccc(Cl)cc2)o1` registered an IC50 of 0.79 µM. This IC50 and that of the molecule before are within 1.5-fold of each other. The value for `NC(N)=Nc1ccc(CCc2ccc(N=C(N)N)cc2)cc1` was 0.29 µM.

In turn, `Cc1ccc2nc(-c3cc(-c4ccc(CO)cc4)cnc3N)[nH]c2c1` gave an IC50 of 0.86 µM. With `O=C(NCCCCCN1CCC(c2c[nH]c3ccccc23)CC1)Nc1ccc(Cl)c(Cl)c1` the figure was 0.92 µM. As for `Cn1cnc(-c2ccc3c(c2)CCN(CCC2CCC(NC(=O)/C=C/c4ccc(F)cc4)CC2)CC3)c1` (stereo unspecified), the IC50 was 0.9 µM. The IC50 values of the last two molecules are within 1.5-fold of each other. The value for `N#Cc1ccccc1N1CCN(C2CCC(NC(=O)c3n[nH]c4cc(C(F)(F)F)ccc34)CC2)CC1` (stereo unspecified) was 1.37 µM; that for `O=C(/C=C/c1ccc(Cl)c(Cl)c1)NC1CCC(CN2CCC(c3coc4ccccc34)CC2)CC1` (stereo unspecified) was 0.83 µM; that for `O=C(O)CCc1ccc(-c2c[nH]c3ncc(-c4ccc5ncccc5c4)cc23)cc1` was 0.3 µM. With `N=C(N)c1cc(Br)cc(NC(=O)Nc2cc(Br)cc(C(=N)N)c2)c1` the figure was 0.82 µM; with `Cc1cc(N[C@@H](Cc2ccccc2)C(=O)NCCOc2ccccc2)nc(NCC2CCCCC2)n1`, 0.85 µM. With `NC(N)=NCCN(Cc1ccccc1)c1ccccc1` the figure was 0.35 µM; with `O=c1[nH]ccc2nc(N[C@@H]3CCCNC3)nc(Nc3ccc(S(=O)(=O)N4CCOCC4)cc3)c12`, 0.74 µM.

In turn, `O=C(Nc1cccnc1)c1cc(-c2cccnc2)nc2ccc(Cl)cc12` showed an IC50 of 1.06 µM. This IC50 and that of the molecule before are within 1.5-fold of each other.

Regarding `COc1ccc2ncc(Cl)c(CCN3CC[C@@H](CNCc4cc5c(cn4)OCS5)C3)c2n1`, the IC50 turned out to be 0.81 µM. The IC50 values of the last two molecules are within 1.5-fold of each other. The value for `N#Cc1ccc(-c2ccc(OCC(O)CN3CCCN(C(=O)C(c4ccc5c(c4)OCO5)N4CCN(C/C=C/c5ccccc5)CC4)CC3)cc2)cc1` (stereo unspecified) was 0.65 µM; that for `O=C(c1cc2ccccc2o1)N1CCc2cc3nccc(N4CCN5CCC[C@H]5C4)c3cc21` was 0.81 µM.

Molecule `O=C([C@@H]1CCCCN1c1ccc([N+](=O)[O-])c2ccccc12)N1CCN(c2ncccn2)CC1` showed an IC50 of 0.2 µM. With `O=C(Nc1ccsc1)Nc1cccc(-c2cccc(-c3nc4ccccc4[nH]3)c2)c1`, the IC50 stood at 0.12 µM. Molecule `Cc1cccc(CNc2nc(C)cc(NCCC(=O)NCCOc3ccccc3)n2)c1` registered an IC50 of 0.87 µM. Against the preceding molecule, the IC50 is about 7.2-fold higher. `c1ccc(C2CCC(N3CCC(N4CCN(c5ccccc5)CC4)CC3)CC2)cc1` (stereo unspecified): the IC50 was 0.76 µM. `Cc1c(Cc2ccccc2Cl)cnc2nc(N)nc(N)c12`: the IC50 came out at 0.01 µM.

The molecule `c1ccc2cc3c(Nc4ccc(N5CCCCC5)cc4)ccnc3cc2c1` had an IC50 of 0.74 µM. Compared with the last molecule, the IC50 is about 74-fold higher.

Molecule `CCc1sc(N2CCN(C)CC2)nc1C(=O)Nc1ccc(F)cc1C(F)(F)F` showed an IC50 of 0.18 µM. The value for `O=[N+]([O-])c1ccc(/C=N/Nc2cc(-c3ccccc3)nc3ccccc23)o1` was 0.86 µM; that for `CCC(C)NS(=O)(=O)c1ccc2nc(Nc3ccc(C)cc3)n(C3CCCCC3C)c2c1` (stereo unspecified) was 0.59 µM. `CCc1[nH]nc(C(=O)NC2CCN(CC3(c4ccc(OC)cc4)CCCCC3)CC2)c1C` yielded an IC50 of 0.89 µM. `COC(=O)C(NC(=O)NC1CCN(c2ccnc(Nc3ccc(F)cc3)n2)C1)c1ccccc1` (stereo unspecified) displayed an IC50 of 1.05 µM.
